Measured values from US11591564B2, “Peptide conjugated hydrogel substrate for the maintenance and expansion of human pluripotent stem cells” (University of Pittsburgh—Of the Commonwealth System of …, priority 2016, dated 2023).
Where “and” joins values, the source holds several entries; their conditions need not be identical. Equal values may be shown once. No end group written: not given here.

Tests used:
hESCs = test: hESC attachment and viability on HAV10-modified LBL films, effect of EDC/NHS concentration; assay type: cell-based; conditions: EDC/NHS used for HAV10 conjugation of PEI(Alg/PAH)5Alg films; 6 hours attachment
Procedure: Layer-by-layer (LBL) coating onto glass coverslips was initiated by incubation in 1.1 mg/ml Polyethylenimine (PEI) for 5 min. The polyelectrolyte solutions used for LBL deposition were 1.1 mg/ml low viscosity alginate (Alg) and poly (allylamine hydrochloride) (PAH), made using 0.1 M 2-(N-morpholino) ethanesulfonic acid (MES) buffer with 0.3M NaCl at pH 6.5. Polyelectrolyte multilayers were deposited by alternatively immersing slides into Alg, followed by PAH, for 1 min each, and were subsequently washed with 0.9% NaCl for 1 min between each deposition step. This process was repeated for 5 Alg/PAH layers, and the film was terminated with a final Alg layer (PEI(Alg/PAH)5Alg). Coverslips were dried at room temperature until used.
Prepared PEI(Alg/PAH)5Alg films were functionalized with the e-cadherin mimicking peptide HAV10 using water soluble carbodiimide chemistry. […]
Human embryonic stem cells (hESCs) were treated with the ROCK inhibitor Y-27632 for 2 hours prior to harvesting. hESCs were harvested using enzyme-free dissociation buffer and were treated with the Vibrant DiD cell labeling solution, to allow for visualization of cell attachment (700 nm). […] Cell attachment for each condition was determined by normalizing the MFI of attached cells to the MFI of the total possible number of cells, for each well imaged.

hPSCs = hPSCs encapsulated in alginate beads (3D), 10-100 mM BaCl2 tested, day 6
Procedure: hESCs were encapsulated using 10, 15, 20, 50 or 100 mM BaCl2 at a seeding density of 1×10^6 cells/ml of alginate solution. Alginate capsules were incubated for 6-8 min in the BaCl2 solution. Capsules were washed three times with DMEM/F12 and suspended in mTeSR1 ([sequence] Technologies, Vancouver, BC) with 10 mM of the ROCK inhibitor (rho-associated, coiled-coil containing protein kinase inhibitor) Y-27632 (e.g., 4-[(1R)-1-aminoethyl]-N-4-pyridinyl-trans-cyclohexanecarboxamide, dihydrochloride, [sequence] Technologies, Vancouver, BC) for 4 days, followed by 2 days in mTeSR1 alone to allow for colony formation. On day 6, viability of encapsulated hPSCs was analyzed by LIVE/DEAD staining, and imaged with fluorescent microscopy. The stock LIVE images from LIVE/DEAD analysis were processed using Metamorph Integrated Morphometry Analysis. hPSC colony data was generated for each colony within each image, measuring the area of the colony. This image processing was done on images taken on 5 capsules, each day for each condition.

H1 hESCs [1] = test: Pluripotency after propagation, qRT-PCR of OCT4 and Nanog; assay type: cell-based, human; conditions: 6 days on alginate conjugated with 50 μg/ml peptide
Procedure: (§1) hESC seeded on the peptide modified alginate hydrogels were propagated for 4 days in mTeSR1 with 10 μm Y-27632 prior to DE induction. DE was induced using 100 ng/ml ActivinA (R&D Systems) with 25 ng/ml Wnt3A (R&D Systems) for 4 days. Quantitative Reverse Transcriptase Polymerase Chain Reaction. mRNA was isolated using the NucleoSpin RNA II kit (Macherey-Nagel, Bethlehem, Pa.). cDNA was obtained using ImpromII Reverse Transcription (Promega, Madison, Wis.). Each PCR reaction contained 5 μl SYBR Green Master Mix (Agilent, Santa Clara, Calif.), 2 μl nuclease free H2O, 2 μl primer, and 10 cDNA. Samples were normalized to the house keeping gene GAPDH and analyzed relative to UD hESCs using the ΔΔCt method. Gene expression was measured with quantitative polymerase chain reaction (qRT-PCR) using an MX3005P system (Agilent).
Having confirmed that the substrates supported attachment and propagation of hPSCs, the next step was to analyze the maintenance of hPSC pluripotency after propagation. hPSC pluripotency is the ability to become any cell type in the body, and along with self-renewal, is the defining characteristic of hPSCs. The maintenance of pluripotency is critical for the downstream differentiation of hPSC into any functional cell types, for cell therapy applications. hPSCs were seeded on alginate conjugated with 50 μg/ml of HAV10, ADT10, HAV6, or ADT, and propagated for 6 days. […] As before, cell morphology was similar across each peptide, and appeared to have similar morphology to the typical hPSC colony (FIG. 12A).

H1 hESCs [2] = test: Cell expansion by MTS assay, day 6 normalized to day 1; assay type: cell-based, human; conditions: 6 days of propagation; alginate modified with 50 μg/ml peptide, or recombinant E-cadherin
Procedure: To determine cell expansion, cellular metabolism was assayed on cells attached to alginate conjugated with 50 μg/ml of each peptide using the CellTiter 96® AQueous One Solution Cell Proliferation Assay (MTS) after 1 and 6 days of culture, according to manufacturer's instructions. Briefly, cells were incubated with the MTS solution at a 1:5 v/v dilution for 3 hours at 37° C. Absorbance intensity of the supernatant at 490 nm was measured using a Synergy 2 multi-mode Microplate Reader. Fold expansion was determined by normalizing the day 6 absorbance by the day 1 absorbance, for cells grown on each peptide-conjugated alginate substrate.
Since high cell expansion is necessary to generate clinically relevant numbers of hPSCs, we next quantified the expansion potential of hPSCs grown on each peptide. Expansion potential was determined by normalizing cell number after 6 days of propagation, by day 1 cell number using MTS.

H1 hESCs [3] = test: Directed differentiation to definitive endoderm, qRT-PCR of SOX17 and FOXA2; assay type: cell-based, human; conditions: for FOXA2 gene expression, fold increase / SOX17 gene expression, upregulation compared to undifferentiated hESC controls: after DE induction (ActivinA + Wnt3A, 4 days); for FOXA2 expression, difference compared to Matrigel / SOX17 expression, difference compared to Matrigel: after DE induction
Procedure: as §1
Having confirmed that hPSCs maintained high pluripotency after being propagated on the E-cadherin mimicking substrates, the next question was if the differentiation potency was also maintained. To evaluate differentiation potential, cells were induced toward the definitive endoderm (DE) germ layer.

H1 hESCs [4] = test: Day 1 cell attachment to peptide conjugated alginate hydrogel (DiD label, LI-COR MFI); assay type: cell-based, human; conditions: peptide conjugated to alginate at 0-500 μg/ml
Procedure: The alginate hydrogels were formed prior to peptide attachment. The culture well was coated with a thin layer of 1.1% (w/v) low viscosity alginate (Sigma-Aldrich) with 0.2% (v/v) gelatin (Sigma-Aldrich), which was allowed to dry overnight. 20 mM BaCl2 was used to rehydrate and simultaneously cross link the alginate in a thin hydrogel covering the bottom of the culture well. Peptide conjugation was done using water soluble carbodiimide chemistry. Alginate hydrogels were activated by incubating with 20 mM/10 mM EDC/NHS in buffer containing 0.3 M 2-(N-morpholino) ethanesulfonic acid (MES) and 0.1 M NaCl, for 15 min. The peptides were then added and incubated overnight at 4° C. to allow for peptide conjugation to the […] of the alginate hydrogel. After conjugation, peptide modified hydrogels were washed with 0.9% saline prior to seeding cells.
Cell Attachment. For cell attachment studies to the peptide modified hydrogels, hESC were first labeled with DiD according to manufactures instruction, a fluorescent lipophilic dye, which is incorporated in the cell membrane. hESC were treated with 10 μm Y-27632 (R&D Systems, Minneapolis, Min.) for 2 hours prior to harvesting by Accutase (Invitrogen) treatment for 5-7 min. […] Cell attachment was analyzed 24 hours after seeding. First, total cell number per well was quantified using the LI-COR Odyssey scanner and Image Studio software to obtain the total possible MFI. Dead and unattached cells were washed away and the number of attached cells per well was again quantified using the LI-COR Odyssey scanner Image Studio software. […]
Having confirmed peptide conjugation to the alginate hydrogel, our first step was to analyze cell attachment to each peptide conjugated substrate. […] After 1 day, cell attachment was quantified for each tested condition using the LI-COR Odyssey scanner. Percent cell attachment was determined by scanning the signal for total seeded cells (prior to wash) and attached cells (post-wash) and normalizing the attached cell MFI to the total cell MFI, for each peptide and peptide concentration (FIG. 9A).

| Compound | toxicity towards hPSC attachment and viability (hESCs) | BaCl2 concentration supportive and strongly inductive of hPSC growth (hPSCs) [mM] | Nanog gene expression, upregulation compared to Matrigel (H1 hESCs [1]) | OCT4 gene expression, upregulation compared to Matrigel (H1 hESCs [1]) | fold expansion of hPSCs (day 6 / day 1) (H1 hESCs [2]) | FOXA2 gene expression, fold increase (H1 hESCs [3]) [fold] | SOX17 gene expression, upregulation compared to undifferentiated hESC controls (H1 hESCs [3]) [fold] | peptide concentration at which cell attachment peaked (H1 hESCs [4]) [µg/mL] | FOXA2 expression, difference compared to Matrigel (H1 hESCs [3]) | SOX17 expression, difference compared to Matrigel (H1 hESCs [3]) | cell attachment compared among peptides (H1 hESCs [4]) |
| --- | --- | --- | --- | --- | --- | --- | --- | --- | --- | --- | --- |
| 1-ethyl-3-(-3-dimethylaminopropyl) carbodiimide hydrochloride (EDC)/N-hydroxysuccinimide (NHS) [EDC/NHS] | mild toxicity |  |  |  |  |  |  |  |  |  |  |
| [Ba+2].[Cl-].[Cl-] [Barium Chloride (BaCl2), Barium Chloride] |  | < 15 |  |  |  |  |  |  |  |  |  |
| ADTPPV (also: conjugated to alginate hydrogel, site not given here) [ADT6] |  |  | on par with Matrigel | on par with Matrigel | 11 fold | 174 | 3400 | 50 |  |  |  |
| LFSHAVSSNG (also: conjugated to alginate hydrogel, site not given here) [HAV10] |  |  |  |  | approximately 23 fold | 497 | ~15000 | 50 | no statistical difference | no statistically significant difference |  |
| QGADTPPVGV (also: conjugated to alginate hydrogel, site not given here) [ADT10] |  |  | 1.5 fold and 1.6 fold | 3 fold and 3.6 fold | approximately 14 fold | 409 | ~13700 |  | no statistical difference | no statistically significant difference | highest cell attachment among all peptides |
| SHAVSS (also: conjugated to alginate hydrogel, site not given here) [HAV6] |  |  | 1.5 fold | 2 fold | 16 fold | 355 | 5900 |  |  |  |  |
